From ChEMBL document CHEMBL1201862, “PubChem BioAssay data set” (2004)
Activity calls are given as the source filed them.

Experiments:
[1] = NIH-3T3 fibroblast cytotoxicity, dose response, cytotoxicity control, cell-based, fluorescence, Alamar Blue, secondary assay (AID 2327); assay type: functional;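 note: NIH-3T3 mouse fibroblasts cultured with fluconazole at 8 µg/mL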
HEK293 [2] = test: inhibition of NOD1-driven NF-kB reporter – cell-based, luminescence, uHTS, primary screen (AID 1578); assay type: functional; conditions: Homo sapiens
HEK293 [3] = test: cells; assay type: functional, cell-based; conditions: Homo sapiens
[4] = fluconazole-exposed Candida albicans growth modulators – fluorescence, retest, confirmation (AID 2467); assay type: functional, cell-based
HEK293 [5] = test: cells; assay type: functional, cell-based; conditions: Homo sapiens; remark: listed apart in the source
[6] = target: Nucleotide-binding oligomerization domain-containing protein 2 (Homo sapiens, UniProt Q9HC29); test: inhibition of NOD2-driven NF-kB reporter – cell-based, luminescence, uHTS, HEK293 (AID 1566); assay type: functional
HEK293 [7] = test: NOD2 signaling inhibitors in MDP-stimulated cells, cell-based, uHTS, luminescence (AID 2001); assay type: functional; conditions: Homo sapiens
HEK293 [8] = test: cells; assay type: functional, cell-based; conditions: Homo sapiens; remark: listed apart in the source
Saccharomyces cerevisiae = test: S. cerevisiae Caspase-1/ASC signal blockers IC50, NALP1 inhibitor project selectivity test (AID 488863); assay type: functional, organism-based
[9] = target: NACHT, LRR and PYD domains-containing protein 1 (Homo sapiens, UniProt Q9C000); test: NALP1 inhibitors in yeast, dose response, luminescent (AID 488860); assay type: functional
[10] = target: FAD-linked sulfhydryl oxidase ALR (Homo sapiens, UniProt P55789); test: ALR-catalysed DTT oxidation blockers – biochemical, H2O2 detection, luminescence, cherry-pick, dose response (AID 493248)
FAD-linked sulfhydryl oxidase ALR, sequence (P55789 whole entry): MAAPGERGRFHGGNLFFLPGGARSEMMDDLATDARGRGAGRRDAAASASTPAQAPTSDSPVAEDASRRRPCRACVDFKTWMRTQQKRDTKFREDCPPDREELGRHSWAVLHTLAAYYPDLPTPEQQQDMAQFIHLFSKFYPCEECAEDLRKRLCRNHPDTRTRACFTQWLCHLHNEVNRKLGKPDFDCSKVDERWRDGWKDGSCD

[11] = target: T1, Microphthalmia-associated transcription factor (Homo sapiens, UniProt O75030); test: reducers of TRPM1 reporter luminescence, concentration series – cell-based, SK-MEL-5, cherry-picked, set 3, MITF inhibitor project, dose response (AID 493073); assay type: functional;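 note: SK-MEL-5 melanoma cells with luciferase driven by the MITF target TRPM1 promoter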
T1 sequence (O75030 whole entry): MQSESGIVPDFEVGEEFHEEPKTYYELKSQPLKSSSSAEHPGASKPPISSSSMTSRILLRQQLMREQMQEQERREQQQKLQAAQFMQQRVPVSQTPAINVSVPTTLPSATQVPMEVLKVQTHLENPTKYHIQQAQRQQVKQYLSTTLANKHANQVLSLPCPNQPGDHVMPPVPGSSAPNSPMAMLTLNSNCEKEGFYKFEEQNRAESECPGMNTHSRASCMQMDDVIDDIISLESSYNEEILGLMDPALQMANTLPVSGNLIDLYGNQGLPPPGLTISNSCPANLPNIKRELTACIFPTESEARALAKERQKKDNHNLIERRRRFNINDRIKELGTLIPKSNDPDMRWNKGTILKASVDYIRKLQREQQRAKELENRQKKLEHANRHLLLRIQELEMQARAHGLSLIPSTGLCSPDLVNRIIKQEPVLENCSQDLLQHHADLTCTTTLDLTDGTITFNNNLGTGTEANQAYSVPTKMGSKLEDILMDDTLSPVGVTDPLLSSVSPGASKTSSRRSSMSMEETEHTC

[12] = target: DNA dC->dU-editing enzyme APOBEC-3A (Homo sapiens, UniProt P31941); test: A3A deaminase inhibition for selectivity – biochemical, dose response (AID 504722); assay type: functional
[13] = target: DNA dC->dU-editing enzyme APOBEC-3G (Homo sapiens, UniProt Q9HC16); test: Dose Response confirmation of small molecule APOBEC3G DNA Deaminase Inhibitors via a fluorescence-based single-stranded DNA deaminase assay. [Related pubchem assays (depositor defined):AID493012, AID493028]; assay type: functional
[14] = target: T2, E3 ubiquitin-protein ligase XIAP (Homo sapiens, UniProt P98170); test: Counter Screen using XIAP-Bir3 for Chemical Antagonists of Bir1/2 domains of IAP-family anti-apoptotic proteins. [Related pubchem assays (depositor defined):AID1018, AID1449, AID1514, AID1638, AID1749, AID1750, AID488957, AID488963]
T2 sequence (P98170 whole entry): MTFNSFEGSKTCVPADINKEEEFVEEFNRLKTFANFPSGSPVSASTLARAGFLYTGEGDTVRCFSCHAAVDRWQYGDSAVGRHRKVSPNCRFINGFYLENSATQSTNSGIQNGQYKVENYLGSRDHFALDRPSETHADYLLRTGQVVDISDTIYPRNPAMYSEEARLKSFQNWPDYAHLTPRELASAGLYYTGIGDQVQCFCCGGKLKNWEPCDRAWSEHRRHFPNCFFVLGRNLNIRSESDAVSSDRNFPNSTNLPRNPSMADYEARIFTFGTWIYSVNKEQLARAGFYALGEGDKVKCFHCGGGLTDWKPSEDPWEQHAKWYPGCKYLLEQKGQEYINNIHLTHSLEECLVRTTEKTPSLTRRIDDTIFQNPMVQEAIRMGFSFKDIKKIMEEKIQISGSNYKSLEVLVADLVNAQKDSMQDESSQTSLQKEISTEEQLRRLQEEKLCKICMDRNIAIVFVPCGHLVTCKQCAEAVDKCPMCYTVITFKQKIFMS

[15] = target: T2, E3 ubiquitin-protein ligase XIAP; test: small molecules displacing peptide from XIAP – biochemical, IAP family, fluorescence polarization (AID 1018); assay type: functional
[16] = target: T1, Microphthalmia-associated transcription factor; test: MITF Measured in Cell-Based System Using Plate Reader - 2084-01_Inhibitor_DoseNoFile_CherryPick_Activity_Set2. [Related pubchem assays (depositor defined):AID488944]; assay type: functional
[17] = target: T1, Microphthalmia-associated transcription factor; test: reducers of TRPM1 reporter luminescence, concentration series – cell-based, SK-MEL-5, cherry-picked, set 4, MITF inhibitor project, dose response (AID 493102); assay type: functional
Leucine aminopeptidase = target: T3, Leucine aminopeptidase (Plasmodium falciparum 3D7, UniProt Q8IL11); test: P. falciparum M17LAP inhibitors, primary screen, biochemical, fluorogenic H-Leu-NHMec substrate, 1536-well (AID 1619); assay type: functional
T3 sequence (Q8IL11 whole entry): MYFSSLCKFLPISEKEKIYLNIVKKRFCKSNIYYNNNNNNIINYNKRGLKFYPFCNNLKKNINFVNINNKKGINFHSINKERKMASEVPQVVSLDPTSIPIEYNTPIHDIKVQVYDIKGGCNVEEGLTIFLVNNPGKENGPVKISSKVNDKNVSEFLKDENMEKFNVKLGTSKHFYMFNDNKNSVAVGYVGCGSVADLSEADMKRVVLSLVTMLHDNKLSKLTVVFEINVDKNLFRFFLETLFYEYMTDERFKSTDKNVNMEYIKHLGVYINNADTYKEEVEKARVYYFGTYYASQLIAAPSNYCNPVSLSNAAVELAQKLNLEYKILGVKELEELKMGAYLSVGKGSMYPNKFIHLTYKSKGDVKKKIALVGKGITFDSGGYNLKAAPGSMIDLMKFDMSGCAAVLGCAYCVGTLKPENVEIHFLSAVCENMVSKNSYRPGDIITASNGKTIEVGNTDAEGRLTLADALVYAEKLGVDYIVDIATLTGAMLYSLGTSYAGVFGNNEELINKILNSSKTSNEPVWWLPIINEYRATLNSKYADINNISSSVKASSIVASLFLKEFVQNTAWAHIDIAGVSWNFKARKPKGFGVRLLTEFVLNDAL

Aspartyl aminopeptidase = Aspartyl aminopeptidase (Plasmodium falciparum 3D7, UniProt Q8I2J3); test: Counterscreen for inhibitors of M1 and M17 aminopeptidases: QFRET-based biochemical high throughput dose response assay for inhibitors of the Plasmodium falciparum M18 Aspartyl Aminopeptidase (PFM18AAP). [Related PubChem assays: 1619 (Screening assay (M17LAP inhibitors).), 1445 (Screening assay (M1AAP inhibitors).)]
[18] = target: Peroxisome proliferator-activated receptor gamma/Nuclear receptor coactivator 1 (Homo sapiens, UniProt P37231); test: (§1) TR-FRET dose response biochemical High Throughput Screening assay for agonists of the steroid receptor coactivator 1 (SRC-1) recruitment by the peroxisome proliferator-activated receptor gamma (PPAR gamma): non-selective agonists. [Related pubchem assays (depositor defined):AID1300, AID1808, AID504735, AID631]; assay type: protein assay
Peroxisome proliferator-activated receptor gamma/Nuclear receptor coactivator 1, sequence (P37231 whole entry): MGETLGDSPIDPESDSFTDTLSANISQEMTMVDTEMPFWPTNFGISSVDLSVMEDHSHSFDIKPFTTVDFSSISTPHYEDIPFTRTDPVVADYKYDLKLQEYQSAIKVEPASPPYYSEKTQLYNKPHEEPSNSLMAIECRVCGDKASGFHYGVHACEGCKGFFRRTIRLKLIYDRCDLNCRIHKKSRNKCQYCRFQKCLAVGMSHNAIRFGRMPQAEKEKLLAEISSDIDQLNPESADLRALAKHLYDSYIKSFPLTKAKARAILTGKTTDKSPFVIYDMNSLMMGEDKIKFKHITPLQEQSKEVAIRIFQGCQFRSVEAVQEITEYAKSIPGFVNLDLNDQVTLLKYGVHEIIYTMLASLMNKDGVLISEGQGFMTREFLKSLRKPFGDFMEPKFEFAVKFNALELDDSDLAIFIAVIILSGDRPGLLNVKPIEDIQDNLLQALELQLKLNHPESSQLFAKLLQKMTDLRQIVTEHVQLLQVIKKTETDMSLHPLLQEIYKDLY
Peroxisome proliferator-activated receptor gamma/Nuclear receptor coactivator 1, sequence (Q15788 whole entry, further chain): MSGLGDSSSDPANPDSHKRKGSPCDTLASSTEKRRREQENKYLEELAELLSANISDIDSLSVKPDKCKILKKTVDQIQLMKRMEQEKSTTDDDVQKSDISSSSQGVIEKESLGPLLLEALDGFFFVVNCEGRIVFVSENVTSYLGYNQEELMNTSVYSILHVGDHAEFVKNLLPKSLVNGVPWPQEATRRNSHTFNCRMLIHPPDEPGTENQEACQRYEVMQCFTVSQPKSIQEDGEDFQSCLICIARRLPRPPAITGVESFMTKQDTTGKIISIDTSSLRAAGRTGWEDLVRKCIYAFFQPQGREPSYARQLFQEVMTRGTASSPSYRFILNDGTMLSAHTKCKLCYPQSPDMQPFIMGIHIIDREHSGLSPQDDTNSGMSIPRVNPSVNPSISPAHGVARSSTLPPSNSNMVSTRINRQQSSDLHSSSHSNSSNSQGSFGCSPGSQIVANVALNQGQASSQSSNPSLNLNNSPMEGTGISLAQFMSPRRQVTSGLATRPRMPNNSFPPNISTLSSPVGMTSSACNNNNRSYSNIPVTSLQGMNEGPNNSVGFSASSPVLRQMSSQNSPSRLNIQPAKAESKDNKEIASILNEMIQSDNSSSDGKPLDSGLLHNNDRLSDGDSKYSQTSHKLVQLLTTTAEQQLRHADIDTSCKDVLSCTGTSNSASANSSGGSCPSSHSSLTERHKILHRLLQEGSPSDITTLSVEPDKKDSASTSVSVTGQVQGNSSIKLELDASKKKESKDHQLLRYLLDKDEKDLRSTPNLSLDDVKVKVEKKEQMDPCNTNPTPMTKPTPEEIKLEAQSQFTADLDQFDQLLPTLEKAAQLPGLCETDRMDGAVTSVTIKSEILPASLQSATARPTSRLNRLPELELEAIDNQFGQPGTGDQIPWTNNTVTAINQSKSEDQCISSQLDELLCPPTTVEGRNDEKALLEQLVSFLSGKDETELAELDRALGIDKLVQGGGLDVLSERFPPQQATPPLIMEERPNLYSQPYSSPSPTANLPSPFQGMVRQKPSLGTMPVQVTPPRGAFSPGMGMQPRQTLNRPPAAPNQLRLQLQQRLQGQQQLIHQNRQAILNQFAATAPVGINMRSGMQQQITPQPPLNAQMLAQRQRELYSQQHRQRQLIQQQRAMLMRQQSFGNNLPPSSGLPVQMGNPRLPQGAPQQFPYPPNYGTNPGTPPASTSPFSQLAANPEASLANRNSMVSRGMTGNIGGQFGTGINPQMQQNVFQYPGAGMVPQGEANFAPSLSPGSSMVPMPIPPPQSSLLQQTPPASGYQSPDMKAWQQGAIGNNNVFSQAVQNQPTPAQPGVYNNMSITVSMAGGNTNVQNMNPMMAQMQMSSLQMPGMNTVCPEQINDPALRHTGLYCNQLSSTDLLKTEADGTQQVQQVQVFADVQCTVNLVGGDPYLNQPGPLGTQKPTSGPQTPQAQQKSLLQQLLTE

[19] = target: Peroxisome proliferator-activated receptor gamma/Nuclear receptor coactivator 3 (Homo sapiens, UniProt P37231); test: as §1, with “3 (SRC-3)” for “1 (SRC-1)”, “assays: 1301 (Confirmation screen.), 1048 (Primary screen.)]” for “assays (depositor defined):AID1300, AID1808, AID504735, AID631]”; assay type: functional
Peroxisome proliferator-activated receptor gamma/Nuclear receptor coactivator 3, sequence (P37231 whole entry): as the sequence (P37231 whole entry) above
Peroxisome proliferator-activated receptor gamma/Nuclear receptor coactivator 3, sequence (Q9Y6Q9 whole entry, further chain): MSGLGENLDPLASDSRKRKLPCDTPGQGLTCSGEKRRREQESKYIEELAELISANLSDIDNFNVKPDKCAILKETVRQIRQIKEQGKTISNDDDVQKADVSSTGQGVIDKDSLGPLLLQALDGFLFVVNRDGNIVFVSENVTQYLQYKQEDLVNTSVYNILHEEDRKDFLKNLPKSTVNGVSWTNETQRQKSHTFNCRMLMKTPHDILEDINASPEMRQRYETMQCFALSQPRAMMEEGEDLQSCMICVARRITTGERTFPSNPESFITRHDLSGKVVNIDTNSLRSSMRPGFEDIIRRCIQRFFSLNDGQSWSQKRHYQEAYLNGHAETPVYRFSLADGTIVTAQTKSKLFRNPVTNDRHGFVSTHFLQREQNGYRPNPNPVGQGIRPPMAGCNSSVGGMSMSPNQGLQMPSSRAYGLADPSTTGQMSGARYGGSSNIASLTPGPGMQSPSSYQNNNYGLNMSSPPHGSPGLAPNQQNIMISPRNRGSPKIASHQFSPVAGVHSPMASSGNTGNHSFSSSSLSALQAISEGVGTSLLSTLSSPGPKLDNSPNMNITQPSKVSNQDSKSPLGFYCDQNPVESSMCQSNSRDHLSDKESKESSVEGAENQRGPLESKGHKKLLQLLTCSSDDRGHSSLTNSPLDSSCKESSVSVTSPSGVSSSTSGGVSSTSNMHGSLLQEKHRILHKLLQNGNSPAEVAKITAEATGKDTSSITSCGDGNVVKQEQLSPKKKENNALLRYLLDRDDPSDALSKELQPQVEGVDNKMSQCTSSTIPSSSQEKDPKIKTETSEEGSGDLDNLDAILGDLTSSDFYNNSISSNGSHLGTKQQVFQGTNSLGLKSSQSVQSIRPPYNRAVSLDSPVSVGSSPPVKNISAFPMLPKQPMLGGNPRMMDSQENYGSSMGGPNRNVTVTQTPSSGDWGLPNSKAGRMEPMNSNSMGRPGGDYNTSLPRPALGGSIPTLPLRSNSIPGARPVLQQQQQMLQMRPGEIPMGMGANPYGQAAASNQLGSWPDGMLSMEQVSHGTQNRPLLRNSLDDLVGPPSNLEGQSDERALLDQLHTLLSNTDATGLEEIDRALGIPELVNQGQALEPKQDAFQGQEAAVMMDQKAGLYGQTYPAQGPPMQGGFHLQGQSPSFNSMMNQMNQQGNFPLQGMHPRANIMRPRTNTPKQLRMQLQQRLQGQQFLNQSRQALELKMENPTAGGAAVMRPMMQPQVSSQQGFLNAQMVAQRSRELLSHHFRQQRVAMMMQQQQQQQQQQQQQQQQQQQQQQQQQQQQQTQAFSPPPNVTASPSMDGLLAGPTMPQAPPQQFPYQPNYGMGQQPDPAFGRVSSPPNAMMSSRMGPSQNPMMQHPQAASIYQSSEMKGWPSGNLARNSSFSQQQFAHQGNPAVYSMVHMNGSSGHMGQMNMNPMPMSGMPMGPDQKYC

Procathepsin L = Procathepsin L (Homo sapiens, UniProt P07711); test: CTSL1 protease inhibition – biochemical, QFRET, 1536-well, counter-screen for M1/M17 aminopeptidase inhibitor project, dose response (AID 2214)
Procathepsin L, sequence (P07711 whole entry): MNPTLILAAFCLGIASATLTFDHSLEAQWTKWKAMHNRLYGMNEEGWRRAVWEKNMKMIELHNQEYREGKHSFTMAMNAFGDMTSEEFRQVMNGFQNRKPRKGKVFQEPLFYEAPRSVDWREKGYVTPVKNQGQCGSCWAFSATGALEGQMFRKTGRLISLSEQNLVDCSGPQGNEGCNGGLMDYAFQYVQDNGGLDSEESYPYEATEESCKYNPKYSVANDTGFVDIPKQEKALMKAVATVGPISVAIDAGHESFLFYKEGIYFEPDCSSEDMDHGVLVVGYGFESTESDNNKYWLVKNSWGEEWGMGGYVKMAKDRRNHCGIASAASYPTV

[20] = target: Peroxisome proliferator-activated receptor gamma/Nuclear receptor coactivator 2 (Homo sapiens, UniProt P37231); test: TR-FRET dose response biochemical High Throughput Screening assay for agonists of the steroid receptor coactivator 2 (SRC-2) recruitment by the peroxisome proliferator-activated receptor gamma (PPAR gamma): non-selective agonists. [Related pubchem assays: 1297, 1032 ]; assay type: functional
[21] = target: T4, Mannose-6-phosphate isomerase (Homo sapiens, UniProt P34949); test: phosphomannose isomerase inhibition – biochemical, fluorescence intensity, confirmation (AID 1535)
T4 sequence (P34949 whole entry): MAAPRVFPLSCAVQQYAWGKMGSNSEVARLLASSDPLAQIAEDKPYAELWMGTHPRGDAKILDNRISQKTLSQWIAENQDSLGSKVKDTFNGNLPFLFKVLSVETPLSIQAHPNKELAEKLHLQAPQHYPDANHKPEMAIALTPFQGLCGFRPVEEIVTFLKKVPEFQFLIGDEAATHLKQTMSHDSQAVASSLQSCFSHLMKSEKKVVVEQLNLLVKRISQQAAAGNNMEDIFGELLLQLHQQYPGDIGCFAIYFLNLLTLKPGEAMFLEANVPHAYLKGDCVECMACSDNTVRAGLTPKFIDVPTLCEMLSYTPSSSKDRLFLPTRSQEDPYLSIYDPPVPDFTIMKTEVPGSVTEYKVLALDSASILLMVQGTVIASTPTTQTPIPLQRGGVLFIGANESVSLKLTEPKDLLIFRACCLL

Phosphomannomutase 2 = Phosphomannomutase 2 (Homo sapiens, UniProt O15305); test: Counter screen SAR assay for PMM2 inhibitors via a fluorescence intensity assay. [Related pubchem assays (depositor defined):AID1545, AID1574]
[22] = target: Glyceraldehyde-3-phosphate dehydrogenase (Homo sapiens, UniProt P04406)
[23] = target: Alkaline phosphatase, placental type (Homo sapiens, UniProt P05187); test: human placental alkaline phosphatase inhibition – biochemical, luminescence, confirmation (AID 1512); assay type: functional
[24] = target: T5, Alkaline phosphatase, tissue-nonspecific isozyme (Homo sapiens, UniProt P05186); test: potency against alkaline phosphatase TNAP – biochemical, luminescent, dose response, SAR follow-up (AID 1056)
T5 sequence (P05186 whole entry): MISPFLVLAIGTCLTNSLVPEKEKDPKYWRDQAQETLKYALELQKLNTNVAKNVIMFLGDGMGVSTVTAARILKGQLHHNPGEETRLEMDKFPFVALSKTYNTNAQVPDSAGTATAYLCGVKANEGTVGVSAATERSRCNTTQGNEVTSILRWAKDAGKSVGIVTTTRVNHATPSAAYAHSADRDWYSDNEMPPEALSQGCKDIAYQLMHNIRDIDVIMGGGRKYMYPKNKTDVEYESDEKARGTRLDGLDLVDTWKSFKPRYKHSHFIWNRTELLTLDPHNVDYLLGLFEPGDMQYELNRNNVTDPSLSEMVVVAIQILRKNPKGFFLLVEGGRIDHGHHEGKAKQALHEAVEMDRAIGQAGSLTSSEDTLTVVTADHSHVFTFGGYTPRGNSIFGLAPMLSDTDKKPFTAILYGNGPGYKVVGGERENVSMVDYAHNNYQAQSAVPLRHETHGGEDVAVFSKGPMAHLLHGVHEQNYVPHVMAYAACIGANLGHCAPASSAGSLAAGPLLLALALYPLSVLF

With `Nc1ccc(Oc2cccc(Oc3ccc(N)cc3)c2)cc1` the EC50 [1] was > 150 µM (inactive), the EC50 (HEK293 [2]) was 5.94 µM (active) and the IC50 (HEK293 [3]) was 1.61 µM (active). For the same molecule, the EC50 [4] was > 38 µM (not active), the IC50 (HEK293 [5]) was > 20 µM (inactive) and the EC50 [6] was 1.85 µM (active). For the same molecule, the IC50 (HEK293 [7]) was 3.05 µM (active), the IC50 (HEK293 [8]) was 19.9 µM (active) and the IC50 (Saccharomyces cerevisiae) was 10.2 µM (active). For the same molecule, the IC50 [9] was 15.3 µM (active), the AC50 [10] was 0.677 µM (active) and the AC50 [11] was 1.1 µM (active).
In the case of `S=c1[nH]nc(-c2ccco2)n1C1CCCCC1`, the IC50 [12] is reported as > 100 µM (inactive), the IC50 [13] is reported as 4.08 µM (active) and the AC50 [10] is reported as 5.64 µM (active).
For `Cc1cc2oc(=O)cc(C)c2cc1NC(=O)CCC(=O)O`, the IC50 [14] was > 100 µM (inactive), the IC50 [15] was > 100 µM (not active) and the AC50 [16] was > 350 µM (inactive). For the same molecule, the AC50 [17] was > 350 µM (inactive) and the AC50 [11] was > 350 µM (inactive).
In the case of `Sc1n[nH]c(-c2cccc(Cl)c2)n1`, the IC50 (Leucine aminopeptidase) is reported as 3.56 µM (active), the IC50 (Aspartyl aminopeptidase) is reported as 15.6 µM (not active) and the EC50 [18] is reported as > 79.4 µM (inactive). For the same molecule, the EC50 [19] was > 79.4 µM (not active), the IC50 (Procathepsin L) was > 59.6 µM (not active) and the EC50 [20] was > 79.4 µM (not active). For the same molecule, the IC50 [21] was 1.94 µM (active), the IC50 (Phosphomannomutase 2) was > 100 µM (inactive) and the AC50 [10] was 0.097 µM (active).
In the case of `CSc1nnc(NC(=O)c2cc(F)c(F)c(F)c2F)[nH]1`, the IC50 [22] is reported as > 100 µM (not active), the IC50 [23] is reported as > 100 µM (inactive) and the IC50 [24] is reported as > 100 µM (inactive).
